Laboratory results as given in patent US20230104936A1, “TRPML MODULATORS” (Casma Therapeutics, Inc., priority 2019, published 2023).

The molecules below were run on TFEB (assay: TFEB nuclear translocation assay, HeLa wt cells). Conditions: Homo sapiens, HeLa, 2 h, 2 hrs compound treatment, Table 1 does not say HeLa wt or TRPML1 KO.
Type: cell-based
How it was run: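 Cells are plated overnight, exposed to compounds for 2 hrs at 37° C, fixed with 4% PFA, blocked, and stained overnight at 4° C with rabbit anti-TFEB. After Alexa 488 secondary and Hoechst, nuclei and a perinuclear ring are segmented to give a nuclear:ring intensity ratio and AC50.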
`Cc1cc(C)cc(CS(=O)(=O)Nc2ccccc2N2CCN(C(=O)C(C)(C)C)CC2)c1` [Compound A-500, 1-(3,5-dimethylphenyl)-N-{2-[4-(2,2-dimethylpropanoyl)piperazin-1-yl]phenyl}methanesulfonamide] gave an AC50 of 2010 to 8000 nM.
With `CC(C)(C)C(=O)N1CCN(c2ccccc2NS(=O)(=O)Cc2ccc3c(c2)COCC3)CC1` [Compound A-501, 1-(3,4-dihydro-1H-2-benzopyran-7-yl)-N-{2-[4-(2,2-dimethylpropanoyl)piperazin-1-yl]phenyl}methanesulfonamide] the AC50 was 2010 to 8000 nM.
`CN(C)S(=O)(=O)c1ccc(S(=O)(=O)Nc2ccccc2N2CC3CN(Cc4ccccc4)CC3C2)cc1` (stereo not shown) [Compound A-502, N4-(2-{5-benzyl-octahydropyrrolo[3,4-c]pyrrol-2-yl}phenyl)-N1,N1-dimethylbenzene-1,4-disulfonamide; formic acid] was tested, and the AC50 was ≤ 2000 nM.
For `CN(C)S(=O)(=O)c1ccc(S(=O)(=O)n2nc(C3CCN(c4c(F)cccc4F)CC3)c3c2CCCN3)cc1` [Compound A-503, 4-((3-(1-(2,6-difluorophenyl)piperidin-4-yl)-4,5,6,7-tetrahydro-1H-pyrazolo[4,3-b]pyridin-1-yl)sulfonyl)-N,N-dimethylbenzenesulfonamide], the AC50 was ≤ 2000 nM.
For `CN(C)S(=O)(=O)c1ccc(S(=O)(=O)n2nc(C3CCN(c4c(F)cccc4F)CC3)c3c2CCCC3)cc1` [Compound A-504, 4-({3-[1-(2,6-difluorophenyl)piperidin-4-yl]-4,5,6,7-tetrahydro-1H-indazol-1-yl}sulfonyl)-N,N-dimethylbenzene-1-sulfonamide], the AC50 was ≤ 2000 nM.
For `CC(c1cccnc1)N1CCN(c2ccccc2NS(=O)(=O)c2ccc(S(=O)(=O)N(C)C)cc2)CC1` (stereo not shown) [Compound A-505, N1,N1-dimethyl-N4-(2-{4-[1-(pyridin-3-yl)ethyl]piperazin-1-yl}phenyl)benzene-1,4-disulfonamide], the AC50 was 2010 to 8000 nM.
`CN(C)S(=O)(=O)c1ccc(S(=O)(=O)Nc2ccccc2N2CCC(C(C)(F)F)CC2)cc1` [Compound A-506, N4-{2-[4-(1,1-difluoroethyl)piperidin-1-yl]phenyl}-N1,N1-dimethylbenzene-1,4-disulfonamide] was tested, and the AC50 was ≤ 2000 nM.
With `CN(C)S(=O)(=O)c1ccc(S(=O)(=O)Nc2ccccc2N2CCCC3(COC3)C2)cc1` [Compound A-507, N1,N1-dimethyl-N4-(2-{2-oxa-6-azaspiro[3.5]nonan-6-yl}phenyl)benzene-1,4-disulfonamide] the AC50 was 2010 to 8000 nM.
For `CN(C)S(=O)(=O)c1ccc(S(=O)(=O)Nc2ccccc2N2CCCC23CCOC3)cc1` (stereo not shown) [Compound A-508, N1,N1-dimethyl-N4-(2-{7-oxa-1-azaspiro[4.4]nonan-1-yl}phenyl)benzene-1,4-disulfonamide], the AC50 was 2010 to 8000 nM.
`CN(C)S(=O)(=O)c1ccc(S(=O)(=O)Nc2ccccc2N2CCN(CC3CCOC3)CC2)cc1` (stereo not shown) [Compound A-509, N1,N1-dimethyl-N4-(2-{4-[(oxolan-3-yl)methyl]piperazin-1-yl}phenyl)benzene-1,4-disulfonamide] gave an AC50 of 2010 to 8000 nM.
In the case of `CN(C)S(=O)(=O)c1ccc(S(=O)(=O)Nc2ccccc2N2CCN(CC3CCOCC3)CC2)cc1` [Compound A-510, N1,N1-dimethyl-N4-(2-{4-[(oxan-4-yl)methyl]piperazin-1-yl}phenyl)benzene-1,4-disulfonamide], the AC50 was ≤ 2000 nM.
`CN(C)S(=O)(=O)c1ccc(S(=O)(=O)Nc2ccccc2N2CCCC3(CCCOC3)C2)cc1` (stereo not shown) [Compound A-511, N1,N1-dimethyl-N4-(2-{2-oxa-8-azaspiro[5.5]undecan-8-yl}phenyl)benzene-1,4-disulfonamide] was tested, and the AC50 was ≤ 2000 nM.
In the case of `CC(C)c1ccc(S(=O)(=O)Nc2ccccc2N2CCN(C(=O)C(C)(C)C)CC2)cc1` [Compound A-512, N-{2-[4-(2,2-dimethylpropanoyl)piperazin-1-yl]phenyl}-4-(propan-2-yl)benzene-1-sulfonamide], the AC50 was 2010 to 8000 nM.
In the case of `CCC(C)c1ccc(S(=O)(=O)Nc2ccccc2N2CCN(C(=O)C(C)(C)C)CC2)cc1` (stereo not shown) [Compound A-513, 4-(butan-2-yl)-N-{2-[4-(2,2-dimethylpropanoyl)piperazin-1-yl]phenyl}benzene-1-sulfonamide], the AC50 was 2010 to 8000 nM.
For `CC1(C)Cc2cc(S(=O)(=O)Nc3ccccc3N3CCN(C(=O)C(C)(C)C)CC3)ccc2O1` [Compound A-514, N-{2-[4-(2,2-dimethylpropanoyl)piperazin-1-yl]phenyl}-2,2-dimethyl-2,3-dihydro-1-benzofuran-5-sulfonamide], the AC50 was ≤ 2000 nM.
`Cn1ccc2cc(S(=O)(=O)Nc3ccccc3N3CCN(C(=O)C(C)(C)C)CC3)ccc21` [Compound A-515, N-{2-[4-(2,2-dimethylpropanoyl)piperazin-1-yl]phenyl}-1-methyl-1H-indole-5-sulfonamide] was tested, and the AC50 was 2010 to 8000 nM.
With `CC(C)(C)C(=O)N1CCN(c2ccccc2NS(=O)(=O)c2ccc(C(C)(C)C)cc2)CC1` [Compound A-516, 4-tert-butyl-N-{2-[4-(2,2-dimethylpropanoyl)piperazin-1-yl]phenyl}benzene-1-sulfonamide] the AC50 was 2010 to 8000 nM.
Molecule `CN1CC2(CCN(c3ccccc3NS(=O)(=O)c3ccc(SC(C)(C)C)cc3)CC2)c2ccc(F)cc21` [Compound A-517, 4-(tert-butylsulfanyl)-N-(2-{6-fluoro-1-methyl-1,2-dihydrospiro[indole-3,4′-piperidin]-1′-yl}phenyl)benzene-1-sulfonamide] has an AC50 of 2010 to 8000 nM.
In the case of `COCCOCC1(C)CCN(c2ccccc2NS(=O)(=O)c2ccc(S(=O)(=O)N(C)C)cc2)CC1` [Compound A-518, N4-(2-{4-[(2-methoxyethoxy)methyl]-4-methylpiperidin-1-yl}phenyl)-N1,N1-dimethylbenzene-1,4-disulfonamide], the AC50 was ≤ 2000 nM.
For `COCCOCCOCC1(C)CCN(c2ccccc2NS(=O)(=O)c2ccc(S(=O)(=O)N(C)C)cc2)CC1` [Compound A-519, N4-[2-(4-{[2-(2-methoxyethoxy)ethoxy]methyl}-4-methylpiperidin-1-yl)phenyl]-N1,N1-dimethylbenzene-1,4-disulfonamide], the AC50 was ≤ 2000 nM.
In the case of `Cc1ccc(N2CCOCC2)c(NS(=O)(=O)c2ccc3c(c2)CCC3)c1` [Compound A-520, N-[5-methyl-2-(morpholin-4-yl)phenyl]-2,3-dihydro-1H-indene-5-sulfonamide], the AC50 was ≤ 2000 nM.
In the case of `COc1ccc(N2CCOCC2)c(NS(=O)(=O)c2ccc3c(c2)CCC3)c1` [Compound A-521, N-[5-methoxy-2-(morpholin-4-yl)phenyl]-2,3-dihydro-1H-indene-5-sulfonamide], the AC50 was ≤ 2000 nM.
In the case of `CN(C)S(=O)(=O)c1ccc(S(=O)(=O)Nc2ccccc2N2CCC(C)(C(C)(C)O)CC2)cc1` [Compound A-522, N1-(2-(4-(2-hydroxypropan-2-yl)-4-methylpiperidin-1-yl)phenyl)-N4,N4-dimethylbenzene-1,4-disulfonamide], the AC50 was 2010 to 8000 nM.
With `CCOC1(C)CCN(c2ccccc2NS(=O)(=O)c2ccc(S(=O)(=O)N(C)C)cc2)CC1` [Compound A-523, N4-[2-(4-ethoxy-4-methylpiperidin-1-yl)phenyl]-N1,N1-dimethylbenzene-1,4-disulfonamide] the AC50 was ≤ 2000 nM.
`CN(C)S(=O)(=O)c1ccc(S(=O)(=O)Nc2ccccc2N2CCC3(CCOCC3)CC2)cc1` [Compound A-524, N1,N1-dimethyl-N4-(2-{3-oxa-9-azaspiro[5.5]undecan-9-yl}phenyl)benzene-1,4-disulfonamide] was tested, and the AC50 was ≤ 2000 nM.
